As usually defined, the IC50 is the concentration that inhibits the measured activity by half. Low readings indicate inhibition by little substance, high ones a need for much substance.

human Nav1.8, sequence (Q9Y5Y9 whole entry): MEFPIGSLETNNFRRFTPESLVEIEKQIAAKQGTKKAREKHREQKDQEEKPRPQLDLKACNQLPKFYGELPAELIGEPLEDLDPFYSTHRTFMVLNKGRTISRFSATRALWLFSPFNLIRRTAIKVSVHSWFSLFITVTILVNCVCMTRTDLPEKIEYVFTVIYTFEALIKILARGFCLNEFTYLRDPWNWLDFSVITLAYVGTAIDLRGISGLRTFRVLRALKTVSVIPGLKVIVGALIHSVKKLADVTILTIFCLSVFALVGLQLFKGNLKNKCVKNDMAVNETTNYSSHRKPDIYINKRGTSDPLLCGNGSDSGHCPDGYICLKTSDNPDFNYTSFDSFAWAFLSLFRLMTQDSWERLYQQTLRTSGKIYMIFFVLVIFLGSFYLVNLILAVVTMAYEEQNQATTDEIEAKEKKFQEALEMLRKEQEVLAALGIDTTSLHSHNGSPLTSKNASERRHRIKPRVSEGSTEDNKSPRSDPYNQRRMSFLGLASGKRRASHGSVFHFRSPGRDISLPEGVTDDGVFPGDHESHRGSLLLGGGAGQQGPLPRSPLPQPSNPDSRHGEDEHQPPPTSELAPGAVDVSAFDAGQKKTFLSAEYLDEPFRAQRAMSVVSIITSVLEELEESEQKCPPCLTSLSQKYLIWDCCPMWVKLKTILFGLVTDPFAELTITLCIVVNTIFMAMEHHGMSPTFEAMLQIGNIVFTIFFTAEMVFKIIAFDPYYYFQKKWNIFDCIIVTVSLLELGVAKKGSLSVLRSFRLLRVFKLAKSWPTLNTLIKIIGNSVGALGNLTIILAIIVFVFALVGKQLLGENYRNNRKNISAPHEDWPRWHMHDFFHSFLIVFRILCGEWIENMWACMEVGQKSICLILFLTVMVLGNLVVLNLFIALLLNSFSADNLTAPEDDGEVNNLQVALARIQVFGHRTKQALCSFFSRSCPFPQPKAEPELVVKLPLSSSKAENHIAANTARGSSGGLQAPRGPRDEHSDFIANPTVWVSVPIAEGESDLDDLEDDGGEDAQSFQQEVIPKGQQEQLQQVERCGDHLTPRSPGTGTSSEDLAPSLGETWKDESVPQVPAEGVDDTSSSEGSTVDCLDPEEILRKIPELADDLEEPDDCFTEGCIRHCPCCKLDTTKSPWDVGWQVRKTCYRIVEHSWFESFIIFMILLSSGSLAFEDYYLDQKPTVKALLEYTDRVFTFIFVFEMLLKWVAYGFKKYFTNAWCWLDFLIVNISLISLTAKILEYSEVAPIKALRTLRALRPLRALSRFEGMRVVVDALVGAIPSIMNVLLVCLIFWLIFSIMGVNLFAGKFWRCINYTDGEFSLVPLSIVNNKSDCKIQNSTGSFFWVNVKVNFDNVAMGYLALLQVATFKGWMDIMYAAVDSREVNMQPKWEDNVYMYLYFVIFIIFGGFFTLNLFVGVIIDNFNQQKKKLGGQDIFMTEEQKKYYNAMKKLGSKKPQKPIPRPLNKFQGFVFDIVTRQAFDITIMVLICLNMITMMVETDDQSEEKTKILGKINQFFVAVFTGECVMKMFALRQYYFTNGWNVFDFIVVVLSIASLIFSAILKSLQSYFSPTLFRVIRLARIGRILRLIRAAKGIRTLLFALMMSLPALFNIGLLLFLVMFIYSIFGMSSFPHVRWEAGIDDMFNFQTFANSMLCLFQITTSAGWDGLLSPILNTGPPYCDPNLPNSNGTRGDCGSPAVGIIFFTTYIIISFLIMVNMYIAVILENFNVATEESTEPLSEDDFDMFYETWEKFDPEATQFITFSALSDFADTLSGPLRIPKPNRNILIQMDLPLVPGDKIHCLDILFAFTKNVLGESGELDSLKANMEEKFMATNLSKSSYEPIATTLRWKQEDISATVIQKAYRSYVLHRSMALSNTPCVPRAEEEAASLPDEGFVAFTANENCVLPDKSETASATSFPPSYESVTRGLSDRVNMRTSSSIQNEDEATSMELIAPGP

This test addresses human Nav1.8 (Homo sapiens (Human), UniProt Q9Y5Y9). Briefly: E-VIPR optical membrane potential assay with electrical stimulation. The class given is cell-based. The conditions noted are these: HEK cells expressing human Nav1.8. From the text: Assays for Detecting and Measuring NaV Inhibition Properties of Compounds E-VIPR Optical Membrane Potential Assay Method with Electrical Stimulation
Sodium channels are voltage-dependent proteins that can be activated by inducing membrane voltage changes by applying electric fields. The electrical stimulation instrument and methods of use are described in Ion Channel Assay Methods PCT/US01/21652, herein incorporated by reference and are referred to as E-VIPR. The instrument comprises a microtiter plate handler, an optical system for exciting the coumarin dye while simultaneously recording the coumarin and oxonol emissions, a waveform generator, a current- or voltage-controlled amplifier, and a device for inserting electrodes in well. Under integrated computer control, this instrument passes user-programmed electrical stimulus protocols to cells within the wells of the microtiter plate.
24 hours before the assay on E-VIPR, HEK cells expressing human Nav1.8 were seeded in 384-well poly-lysine coated plates at 15,000-20,000 cells per well. HEK cells were grown in media (exact composition is specific to each cell type and NaV subtype) supplemented with 10% FBS (Fetal Bovine Serum, qualified; GibcoBRL #16140-071) and 1% Pen-Strep (Penicillin-Streptomycin; GibcoBRL #15140-122). Cells were grown in vented cap flasks, in 90% humidity and 5% CO2.
100 mg/mL Pluronic F-127 (Sigma #P2443), in dry DMSO
Compound Plates: 384-well round bottom plate, e.g. Corning 384-well Polypropylene Round Bottom #3656
Cell Plates: 384-well tissue culture treated plate, e.g. Greiner #781091-1B
Bath1 buffer: Glucose 10 mM (1.8 g/L), Magnesium Chloride (Anhydrous), 1 mM (0.095 g/L), Calcium Chloride, 2 mM (0.222 g/L), HEPES 10 mM (2.38 g/L), Potassium Chloride, 4.5 mM (0.335 g/L), Sodium Chloride 160 mM (9.35 g/L).
Hexyl Dye Solution: Bath1 Buffer+0.5% β-cyclodextrin (make this prior to use, Sigma #C4767), 8 μM CC2-DMPE+2.5 μM DiSBAC6(3). To make the solution added volume of 10% Pluronic F127 stock equal to volumes of CC2-DMPE+DiSBAC6(3). The order of preparation was first mix Pluronic and CC2-DMPE, then added DiSBAC6(3) while vortexing, then added Bath1+β-Cyclodextrin.
1) Pre-spotted compounds (in neat DMSO) into compound plates. Vehicle control (neat DMSO), the positive control (20 mM DMSO stock tetracaine, 125 μM final in assay) and test compounds were added to each well at 160× desired final concentration in neat DMSO. Final compound plate volume was 80 μL (80-fold intermediate dilution from 1 μL DMSO spot; 160-fold final dilution after transfer to cell plate). Final DMSO concentration for all wells in assay was 0.625%.
2) Prepared Hexyl Dye Solution.
3) Prepared cell plates. On the day of the assay, medium was aspirated and cells were washed three times with 100 μL of Bath1 Solution, maintaining 25 μL residual volume in each well.
4) Dispensed 25 μL per well of Hexyl Dye Solution into cell plates. Incubated for 20-35 minutes at room temp or ambient conditions.
5) Dispensed 80 μL per well of Bath1 into compound plates. Acid Yellow-17 (1 mM) was added and Potassium Chloride was altered from 4.5 to 20 mM depending on the NaV subtype and assay sensitivity.
6) Washed cell plates three times with 100 μL per well of Bath1, leaving 25 μL of residual volume. Then transfered 25 uL per well from Compound Plates to Cell Plates. Incubated for 20-35 minutes at room temp/ambient condition.
7) Read Plate on E-VIPR. Used the current-controlled amplifier to deliver stimulation wave pulses for 10 seconds and a scan rate of 200 Hz. A pre-stimulus recording was performed for 0.5 seconds to obtain the un-stimulated intensities baseline. The stimulatory waveform was followed by 0.5 seconds of post-stimulation recording to examine the relaxation to the resting state.
Data was analyzed and reported as normalized ratios of emission intensities measured in the 460 nm and 580 nm channels. The response as a function of time was reported as the ratios obtained using the following formula: […]
For `O=C(O)c1ccc(NC(=O)c2ccc(C(F)(F)C(F)(F)F)cc2Oc2ccc(F)cc2)cn1` [Compound 73, 5-(2-(4-fluorophenoxy)-4-(perfluoroethyl)benzamido)picolinic acid], the IC50 came to 110 nM.

Consider `O=C(O)c1ccc(NC(=O)c2cc(C(F)(F)F)ccc2Oc2ccccc2)cn1` [Compound 70, 5-(2-phenoxy-5-(trifluoromethyl)benzamido)picolinic acid], for which the midpoint of inhibition, the IC50, lay at 985 nM.

Take `Cc1cc(F)ccc1Oc1ccc(C(F)(F)F)cc1C(=O)Nc1ccc(C(=O)O)cc1` [Compound 29, 4-(2-(4-fluoro-2-methylphenoxy)-5-(trifluoromethyl)benzamido)benzoic acid]: the half-maximal inhibitory concentration (IC50) is 245 nM.

`Cc1cc(F)ccc1Oc1ccc(C(F)(F)F)cc1C(=O)Nc1ccc(C(=O)O)nc1` [Compound 75, 5-(2-(4-fluoro-2-methylphenoxy)-5-(trifluoromethyl)benzamido)picolinic acid] had an IC50 of 108 nM.

The compound `COc1ccc(Oc2cc(Cl)c(Cl)cc2C(=O)Nc2ccc(C(=O)O)cc2)cc1F` [Compound 22, 4-(4,5-dichloro-2-(3-fluoro-4-methoxyphenoxy)benzamido)benzoic acid] gave an IC50 of 78 nM.

As for `COc1ccccc1Oc1cc(C(F)(F)F)cc(C(F)(F)F)c1C(=O)Nc1ccc(C(=O)O)nc1` [Compound 45, 5-(2-(2-methoxyphenoxy)-4,6-bis(trifluoromethyl)benzamido)picolinic acid], the IC50 turned out to be 64 nM. This IC50 and that of the compound before are within 1.5-fold of each other.

For `O=C(O)c1ccc(NC(=O)c2ccc(C(F)(F)C(F)(F)F)cc2Oc2ccc(F)cc2F)cc1` [Compound 2, 4-(2-(2,4-difluorophenoxy)-4-(perfluoroethyl)benzamido)benzoic acid], the 50% inhibitory concentration (IC50) was determined as 32 nM.

For the compound `O=C(O)c1ccc(NC(=O)c2ccc(C(F)(F)F)cc2Oc2ccc(OC(F)(F)F)cc2)cc1` [Compound 7, 4-(2-(4-(trifluoromethoxy)phenoxy)-4-(trifluoromethyl)benzamido)benzoic acid], the IC50 was 37 nM.

`COc1ccc(F)cc1Oc1ccc(C(F)(F)F)cc1C(=O)Nc1ccc(C(=O)O)nc1` [Compound 59, 5-(2-(5-fluoro-2-methoxyphenoxy)-5-(trifluoromethyl)benzamido)picolinic acid] yielded an IC50 of 740 nM.

The compound `O=C(O)c1ccc(NC(=O)c2cc(Cl)c(Cl)cc2Oc2ccccc2OC(F)F)cn1` [Compound 37, 5-(4,5-dichloro-2-(2-(difluoromethoxy)phenoxy)benzamido)picolinic acid] registered a concentration for half-maximal inhibition (IC50) of 46 nM.

With `O=C(O)c1ccc(NC(=O)c2c(Oc3ccc(F)cc3)cc(C(F)(F)F)cc2C(F)(F)F)cn1` [Compound 50, 5-(2-(4-fluorophenoxy)-4,6-bis(trifluoromethyl)benzamido)picolinic acid], half-maximal inhibition (IC50) required 130 nM.

Take `Cc1cc(F)ccc1Oc1cc(C(F)(F)C(F)(F)F)ccc1C(=O)Nc1ccc(C(=O)O)cc1` [Compound 3, 4-(2-(4-fluoro-2-methylphenoxy)-4-(perfluoroethyl)benzamido)benzoic acid]: the IC50 was found to be 22 nM.

In turn, `COc1ccc(Oc2cc(C(F)(F)F)cc(C(F)(F)F)c2C(=O)Nc2ccc(C(=O)O)nc2)c(OC)c1` [Compound 49, 5-(2-(2,4-dimethoxyphenoxy)-4,6-bis(trifluoromethyl)benzamido)picolinic acid] had a half-maximal inhibitory concentration (IC50) of 6 nM.

In the case of `O=C(O)c1ccc(NC(=O)c2ccc(C(F)(F)F)cc2Oc2ccc(F)cc2Cl)cc1` [Compound 4, 4-(2-(2-chloro-4-fluorophenoxy)-4-(trifluoromethyl)benzamido)benzoic acid], the IC50 stood at 58 nM.

As for `COc1cc(F)ccc1Oc1cc(C(F)(F)F)cc(C(F)(F)F)c1C(=O)Nc1ccc(C(=O)O)nc1` [Compound 48, 5-(2-(4-fluoro-2-methoxyphenoxy)-4,6-bis(trifluoromethyl)benzamido)picolinic acid], the midpoint of inhibition, the IC50, lay at 14 nM.

`COc1ccc(Oc2cc(Cl)c(Cl)cc2C(=O)Nc2ccc(C(=O)O)nc2)c(OC)c1` [Compound 39, 5-(4,5-dichloro-2-(2,4-dimethoxyphenoxy)benzamido)picolinic acid] registered a half-inhibitory concentration (IC50) of 15 nM.

`O=C(O)c1ccc(NC(=O)c2ccc(C(F)(F)F)cc2Oc2ccc(F)cc2)cn1` [Compound 56, 5-(2-(4-fluorophenoxy)-4-(trifluoromethyl)benzamido)picolinic acid] came in with an IC50 of 250 nM.

In turn, `O=C(O)c1ccc(NC(=O)c2cc(Cl)c(Cl)cc2Oc2ccc(F)cc2)cn1` [Compound 30, 5-(4,5-dichloro-2-(4-fluorophenoxy)benzamido)picolinic acid] registered a concentration for half-maximal inhibition (IC50) of 34 nM.

`CC(C)Oc1ccccc1Oc1ccc(C(F)(F)F)cc1C(=O)Nc1ccc(C(=O)O)nc1` [Compound 64, 5-(2-(2-isopropoxyphenoxy)-5-(trifluoromethyl)benzamido)picolinic acid] showed an IC50 of 755 nM.

As for `Cc1cc(Cl)ccc1Oc1cc(Cl)c(Cl)cc1C(=O)Nc1ccc(C(=O)O)cc1` [Compound 20, 4-(4,5-dichloro-2-(4-chloro-2-methylphenoxy)benzamido)benzoic acid], the IC50 was 24 nM.

In turn, `COc1ccc(Oc2cc(Cl)c(Cl)cc2C(=O)Nc2ccc(C(=O)O)cc2)c(Cl)c1` [Compound 25, 4-(4,5-dichloro-2-(2-chloro-4-methoxyphenoxy)benzamido)benzoic acid] had a half-maximal inhibitory concentration (IC50) of 92 nM.

Turning to `O=C(O)c1ccc(NC(=O)c2cc(Cl)c(Cl)cc2Oc2ccc(F)cc2)cc1` [Compound 13, 4-(4,5-dichloro-2-(4-fluorophenoxy)benzamido)benzoic acid], the IC50 came to 58 nM.

Consider `O=C(O)c1ccc(NC(=O)c2ccc(C(F)(F)F)cc2Oc2ccc(F)cc2F)cc1` [Compound 6, 4-(2-(2,4-difluorophenoxy)-4-(trifluoromethyl)benzamido)benzoic acid], for which it took 145 nM to reach half-maximal inhibition (IC50).

Take `Cc1cc(F)ccc1Oc1cc(C(C)(C)C)ccc1C(=O)Nc1ccc(C(=O)O)nc1` [Compound 53, 5-(4-(tert-butyl)-2-(4-fluoro-2-methylphenoxy)benzamido)picolinic acid]: the concentration for half-maximal inhibition (IC50) is 46 nM.

The compound `COc1ccc(Oc2cc(Cl)c(Cl)cc2C(=O)Nc2ccc(C(=O)O)cc2)c(OC)c1` [Compound 21, 4-(4,5-dichloro-2-(2,4-dimethoxyphenoxy)benzamido)benzoic acid] returned a concentration for half-maximal inhibition (IC50) of 27 nM.

Consider `Cc1cc(F)ccc1Oc1cc(C(F)(F)F)cc(C(F)(F)F)c1C(=O)Nc1ccc(C(=O)O)nc1` [Compound 47, 5-(2-(4-fluoro-2-methylphenoxy)-4,6-bis(trifluoromethyl)benzamido)picolinic acid], for which 42 nM corresponded to half-maximal inhibition (IC50).

The compound `COc1ccc(Oc2ccc(C(F)(F)F)cc2C(=O)Nc2ccc(C(=O)O)nc2)c(Cl)c1` [Compound 68, 5-(2-(2-chloro-4-methoxyphenoxy)-5-(trifluoromethyl)benzamido)picolinic acid] had an IC50 of 135 nM.

Regarding `Cc1cc(F)ccc1Oc1cc(Cl)c(Cl)cc1C(=O)Nc1ccc(C(=O)O)cc1` [Compound 14, 4-(4,5-dichloro-2-(4-fluoro-2-methylphenoxy)benzamido)benzoic acid], the half-inhibitory concentration (IC50) turned out to be 15 nM.

In turn, `COc1cc(F)ccc1Oc1cc(C(F)(F)C(F)(F)F)ccc1C(=O)Nc1ccc(C(=O)O)nc1` [Compound 72, 5-(2-(4-fluoro-2-methoxyphenoxy)-4-(perfluoroethyl)benzamido)picolinic acid] showed an IC50 of 35 nM.
